Reference: patent US20250255847A1, “[…]s: Novel Drugs for Triple Negative Breast Cancer” (SIMMARON RSEARCH INC, priority 2024, published 2025)

Biological target: T1, Y705P STAT3 and S727P STAT3 (Homo sapiens, UniProt P40763)
T1 construct: tissue Jackson Laboratories TM00096; host or cells: patient-derived TNBC tumour in NOD.Cg-Prkdcscid Il2rgtm1Wjl/SzJ mice
Experiment: IHC and immunoblot of phospho-STAT3 in PDX tumors
Type: in vivo, mouse
Conditions: tumor tissue; for expression of Y705PSTAT3 (IHC): p<0.0001 versus vehicle
Description: FIG. 15 illustrates an embodiment of the present invention and illustrates SIM 1 and 2 inhibited Y705P phosphorylation of STAT3 and the expressions of STAT3-dependent tumor supportive genes. (A) DAB immunostaining of Y705P STAT3 in tumor parenchyma of all three groups. (B) Quantitative analysis of Y705P STAT3-ir cells was performed by counting Y705P STAT3 cells in 15 different images, converting into a percent scale, and then plotting in a scatter histogram. On-way ANOVA followed by multiple comparison test indicated ****p<0.0001 versus control. (C) DAB immunostaining of S727P STAT3 followed by a (D) quantitative analysis of S727P STAT3-ir cells was performed in 15 different images and then plotted as a percent of total cells by a scatter histogram. On-way ANOVA represents no significance (NS) between groups. (E) Immunoblot analyses of Y705PSTAT3 (Rabbit […] antibody Cat #710093; Invitrogen), S727PSTAT3 (Mouse 1° antibody cat #MA5-15208; Invitrogen) followed by normalization with loading control β-actin (Mouse 1° antibody cat #MA1-744; Invitrogen). (F) A cDNA-based gene array of 66 STAT3-dependent tumor promoting genes were analyzed in TNBC tumors of vehicle-, SIM-1-, and SIM-2-treated mice. (G) A scatter plot summarized the gene array results. Based on the relative levels of expressions, gene levels were classified as low, moderate, and highly expressed. Results are confirmed after three different experiments.
Immunoblot assay. Immunoblot assay was performed as described before. Briefly, cell lysates were mixed with 5× Lamelli buffer, electrophoresed in 4-12% Tris-Glycine gel in tris-glycine SDS running buffer, transferred in a nitrocellulose membrane (P/N 926-31090; Li-Cor Biosciences, Lincoln, NE) in tris-glycine transfer buffer, incubated with appropriate primary antibodies overnight under shaking condition, labeled with IRDye700 and 800-tagged secondary antibodies for 2 hrs at room temperature in an orbital shaker, and then imaged in Odyssey Sa imager at 200 μm resolution.
Immunohistochemical (IHC) analyses. Tumor tissues were embedded in paraffin, cut at a thickness of 5 μm in Leica microtome, attached to a charged slide, dried in a dry bath at 37° C. for at least 48 hrs., and then progressed for IHC analysis. The IHC analysis was performed where, briefly, sections were deparaffinized by xylene and rehydrated by ethanol gradient (100%>70%>50%>20%; v/v) followed by complete rehydration by water. After that sections were blocked by Intercept® (TBS) Blocking Buffer (Licor Biosciences, Lincoln, NE) for 30 minutes, incubated with primary (1°) antibodies (Refer to Table 1) overnight at 4° C., washed with 1×TBST wash buffer for 3 times, incubated with biotinylated anti-mouse (1:200 dilution) or anti-rabbit (1:200 dilution) secondary (2°) antibodies (ThermoFisher), for 2 hrs., reacted with VECTASTAIN® Elite® ABC-HRP Kit, Peroxidase (Cat #PK-6100; Vector Laboratories) for 1 hr. as per manufacturer's recommendation, and finally stained with DAB chromogenic solution (Cat #SK-4100; Vector Laboratories).
This example provides a representative experiment that tested if SIM-1 and SIM-2 suppressed the activation of STAT3 in TNBC tumors. […] The result was further corroborated by the quantitative analysis (FIG. 15B), which indicated a significant downregulation of Y705PSTST3-ir cells (One-way ANOVA indicated ****p<0.0001 versus vehicle).
On the contrary, the expression of S727PSTAT3, another active isomer of STAT3, remained very low and unchanged across the treatment groups (FIG. 15C).
These genes include anti-apoptotic genes such as bcl-2, survivin, and bcl-xl; cell cycle progression markers such as cyclin D1, akt, and p21.

T1 sequence (P40763 2-770 Y705P/S727P limits assumed): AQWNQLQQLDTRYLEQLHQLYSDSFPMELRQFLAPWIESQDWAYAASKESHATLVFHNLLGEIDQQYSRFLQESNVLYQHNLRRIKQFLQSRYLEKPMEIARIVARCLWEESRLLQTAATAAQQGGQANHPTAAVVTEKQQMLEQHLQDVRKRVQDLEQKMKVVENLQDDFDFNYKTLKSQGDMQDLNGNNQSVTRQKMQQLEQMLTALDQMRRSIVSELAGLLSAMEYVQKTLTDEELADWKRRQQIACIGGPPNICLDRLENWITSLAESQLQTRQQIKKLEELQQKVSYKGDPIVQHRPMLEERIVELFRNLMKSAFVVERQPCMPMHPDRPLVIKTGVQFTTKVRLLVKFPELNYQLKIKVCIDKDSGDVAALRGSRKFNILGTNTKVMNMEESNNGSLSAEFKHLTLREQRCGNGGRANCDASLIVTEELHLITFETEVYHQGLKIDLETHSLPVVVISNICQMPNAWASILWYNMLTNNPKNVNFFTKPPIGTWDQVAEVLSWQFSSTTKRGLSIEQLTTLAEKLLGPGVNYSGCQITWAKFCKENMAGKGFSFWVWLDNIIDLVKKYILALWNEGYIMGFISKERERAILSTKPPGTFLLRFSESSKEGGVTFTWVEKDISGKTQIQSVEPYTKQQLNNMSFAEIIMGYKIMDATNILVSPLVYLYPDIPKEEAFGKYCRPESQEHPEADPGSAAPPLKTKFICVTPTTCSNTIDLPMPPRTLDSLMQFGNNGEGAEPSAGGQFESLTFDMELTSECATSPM

SMILES | S727P STAT3 expressions (IHC) | Y705 phosphorylation of STAT3 (immunoblot) | expression of Y705PSTAT3 (IHC)
O=C(O)CCC(=O)NCc1csc2ccc(Cl)cc12 [SIM-1, 4-[(5-chloro-1-benzothiophen-3-yl)methylamino]-4-oxobutanoic acid] | did not show any change | strongly and selectively suppressed | significantly suppressed
CCOC(=O)c1c(NC(C)=O)sc2c(Cl)c(/C=N/O)ccc12 [SIM-2, ethyl 2-acetamido-7-chloro-6-(hydroxyiminomethyl)-1-benzothiophene-3-carboxylate] | did not show any change | strongly and selectively suppressed | completely ameliorated
